Values quoted from earlier work, collected in patent publication EP0716679B1, “METHOD OF CLEANING VINYL SURFACES BY MEANS OF MILDLY ACIDIC HARD SURFACE CLEANING COMPOSITIONS CONTAINING AMINE OXIDE DETERGENT SURFACTANTS” (THE PROCTER & GAMBLE COMPANY, priority 1993, dated 1995).
Read-outs that look alike come from different tables or passages of the source.

Row | SMILES | pKa of acidifying agent (first pKa) | pKa of acidifying agent (fourth pKa printed) | pKa of acidifying agent (second pKa) | pKa of acidifying agent (third pKa printed)
1 | O=C(O)CN(CCN(CC(=O)O)CC(=O)O)CC(=O)O [Ethylene diamine tetraacetic acid] | 1.7 | 10.6 | 2.6 | 6.3
2 | O=C(O)CC(O)C(=O)O (stereo not shown) [Malic acid] | – | – | 5.05 | –
